Results on 31 molecules are retold here after ChEMBL document CHEMBL1131776, “Potent, elective human beta3 adrenergic receptor agonists containing a substituted indoline-5-sulfonamide pharmacophore” (Bioorg Med Chem Lett, 1999).

Each structure is given as a SMILES string.

For test [1], the target named is T1, Beta-3 adrenergic receptor (Homo sapiens, UniProt P13945). As to the kind of experiment: In vitro agonistic activity against cloned human beta-3 adrenergic receptor […] increase in cAMP in CHO cells. Type of test: functional, cell-based.
Target sequence in this assay (P13945 whole entry): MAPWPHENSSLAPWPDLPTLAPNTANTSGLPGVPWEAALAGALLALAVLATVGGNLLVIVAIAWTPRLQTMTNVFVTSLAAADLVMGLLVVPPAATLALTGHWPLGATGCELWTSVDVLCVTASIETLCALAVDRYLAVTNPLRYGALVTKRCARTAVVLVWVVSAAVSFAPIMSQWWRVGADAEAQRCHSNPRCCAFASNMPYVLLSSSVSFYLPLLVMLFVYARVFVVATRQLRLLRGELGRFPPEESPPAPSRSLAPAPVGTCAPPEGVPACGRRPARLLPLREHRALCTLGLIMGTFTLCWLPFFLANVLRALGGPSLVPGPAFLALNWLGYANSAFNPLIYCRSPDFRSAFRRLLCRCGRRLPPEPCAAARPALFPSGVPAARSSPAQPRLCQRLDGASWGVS
The target in test [2] is Beta-1 adrenergic receptor (Homo sapiens, UniProt P08588). As to the kind of experiment: biochemical.
Description: In vitro binding affinity towards cloned human beta-1 adrenergic receptor using [125I]iodocyanopindolol as radioligand to stimulate increase in cAMP in CHO cells
The target in test [3] is Beta-2 adrenergic receptor (Homo sapiens, UniProt P07550). As to the kind of experiment: biochemical.
Description: In vitro binding affinity towards cloned human beta-2 adrenergic receptor using [125I]iodocyanopindolol as radioligand to stimulate increase in cAMP in CHO cells
Test [4] has as its target T1, Beta-3 adrenergic receptor. As to the kind of experiment: Adenylyl cyclase activation as percent maximal stimulation with isoproterenol at 100 nM. Type of test: functional.
Target sequence in this assay (P13945 whole entry, looked up): as the sequence (P13945 whole entry) above

As usually defined, the EC50 is the concentration needed to bring the measured effect to its halfway point. The low end stands for greater potency, the high end for weaker potency. Usually IC50 stands for the midpoint of a concentration-inhibition curve.

Beta-2 adrenergic receptor, sequence (P07550 whole entry): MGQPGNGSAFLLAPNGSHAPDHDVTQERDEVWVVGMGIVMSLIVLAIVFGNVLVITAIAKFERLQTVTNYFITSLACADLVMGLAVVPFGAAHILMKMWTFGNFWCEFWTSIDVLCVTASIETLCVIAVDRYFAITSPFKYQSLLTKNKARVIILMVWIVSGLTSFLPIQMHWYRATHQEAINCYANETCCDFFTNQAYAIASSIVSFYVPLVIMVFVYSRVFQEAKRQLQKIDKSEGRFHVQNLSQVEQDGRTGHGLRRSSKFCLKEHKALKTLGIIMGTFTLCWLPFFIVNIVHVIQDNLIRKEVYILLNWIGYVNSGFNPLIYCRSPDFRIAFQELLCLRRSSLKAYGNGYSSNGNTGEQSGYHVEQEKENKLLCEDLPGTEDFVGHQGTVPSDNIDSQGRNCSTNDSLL
Beta-1 adrenergic receptor, sequence (P08588 whole entry): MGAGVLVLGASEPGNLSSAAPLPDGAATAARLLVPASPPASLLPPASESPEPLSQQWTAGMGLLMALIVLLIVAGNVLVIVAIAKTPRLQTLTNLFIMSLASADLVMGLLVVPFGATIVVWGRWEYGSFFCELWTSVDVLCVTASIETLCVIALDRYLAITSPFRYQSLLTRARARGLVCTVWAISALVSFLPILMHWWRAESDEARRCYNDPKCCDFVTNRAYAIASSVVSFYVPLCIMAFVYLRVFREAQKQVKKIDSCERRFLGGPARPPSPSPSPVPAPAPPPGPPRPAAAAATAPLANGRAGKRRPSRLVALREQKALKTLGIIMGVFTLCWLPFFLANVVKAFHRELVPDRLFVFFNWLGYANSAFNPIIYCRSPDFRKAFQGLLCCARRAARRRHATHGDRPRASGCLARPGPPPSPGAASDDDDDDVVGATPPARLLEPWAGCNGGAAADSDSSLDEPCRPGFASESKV

For the molecule `Cc1csc(N2CCc3cc(S(=O)(=O)Nc4ccccc4)ccc32)n1`, the EC50 in test [1] was determined as 8.1 nM. In addition, the figures for the IC50 in test [2] and in test [3] were 4000 nM and 750 nM, respectively.
With `CCCCCCc1ccc(N2CCc3cc(S(=O)(=O)Nc4ccccc4)ccc32)nc1`, in test [1], the 50% effective concentration (EC50) came out at 1.6 nM. Also, the results for the IC50 in test [2] and in test [3] were 1800 nM and 240 nM, respectively.
Take `CCCCCCNC(=O)N(C)c1ccc(S(=O)(=O)Nc2ccc(CCNC[C@H](O)c3cccnc3)cc2)cc1`: the Activation in test [4] came to 20%. Also, the IC50 in test [2] and in test [3] was 10000 nM throughout.
As for `CN(C(=O)N1CCc2cc(S(=O)(=O)Nc3ccccc3)ccc21)C(C)(C)Cc1ccccc1`, in test [4], the Activation worked out at 17%. The IC50 turned out to be 3000 nM in test [2] and 8000 nM in test [3].
As to `O=S(=O)(Nc1ccccc1)c1ccc2c(c1)CCN2c1nc(CCCC2CCCC2)cs1`, in test [1], it took 3.2 nM to reach a half-maximal effect (EC50). Besides, the IC50 in test [2] was determined as 4000 nM; in test [3] it was 900 nM.
In the case of `CCCCCCCCc1cccc(N2CCc3cc(S(=O)(=O)Nc4ccccc4)ccc32)c1`, the EC50 in test [1] was 1.3 nM. For the same molecule, the IC50 in test [2] amounted to 2500 nM; in test [3], 1500 nM.
In the case of `CCCCCCN(C)C(=O)N1CCc2cc(S(=O)(=O)Nc3ccccc3)ccc21`, in test [1], the EC50 was 47 nM. For the same molecule, the IC50 in test [2] worked out at 10000 nM; in test [3] it was 6500 nM.
`CCCCCCc1cccc(N2CCc3cc(S(=O)(=O)Nc4ccccc4)ccc32)c1` returned an EC50 in test [1] of 1.8 nM. Also, the results for the IC50 in test [2] and in test [3] were 700 nM and 460 nM, respectively.
In turn, `CCCCCCc1cccc(N2CCc3cc(S(=O)(=O)Nc4ccccc4)ccc32)n1` registered an EC50 in test [1] of 1.2 nM. Also, the IC50 amounted to 900 nM in test [2] and 140 nM in test [3].
For `CCCCCCNC(=O)N1CCc2cc(S(=O)(=O)Nc3ccccc3)ccc21`, in that order: 6.9 nM, 40000 nM and 36000 nM.
`CCCCCCc1ccnc(N2CCc3cc(S(=O)(=O)Nc4ccccc4)ccc32)n1` gave an EC50 in test [1] of 5.1 nM. The IC50 turned out to be 1400 nM in test [2] and 620 nM in test [3].
Regarding `CNC(=O)N1CCc2cc(S(=O)(=O)Nc3ccccc3)ccc21`, the EC50 in test [1] is 55 nM. Also, the figures for the IC50 in test [2] and in test [3] were 100000 nM and 7300 nM, respectively.
In turn, `O=S(=O)(Nc1ccccc1)c1ccc2c(c1)CCN2c1cccc(CCCC2CCCC2)n1` returned an EC50 in test [1] of 1.7 nM. For the same molecule, the IC50 stood at 3000 nM in test [2] and 450 nM in test [3].
For `CCCCCCCCc1cnc(N2CCc3cc(S(=O)(=O)Nc4ccccc4)ccc32)o1`, in that order: 3.7 nM, 4200 nM and 180 nM.
As to `CCCCCCCCc1csc(N(C)c2ccc(S(=O)(=O)Nc3ccccc3)cc2)n1`, the midpoint of the response in test [1], the EC50, lay at 5.5 nM. The IC50 was 1500 nM in test [2] and 440 nM in test [3].
In the case of `O=S(=O)(Nc1ccc(CCNC[C@H](O)COc2ccc(O)cc2)cc1)c1ccc2c(c1)CCN2`, the 50% effective concentration (EC50) in test [1] came to 0.65 nM.
Regarding `CCCCCCc1nc(N2CCc3cc(S(=O)(=O)Nc4ccccc4)ccc32)no1`, in test [1], the EC50 is 13 nM. Also, the values for the IC50 in test [2] and in test [3] were 600 nM and 52 nM, respectively.
Take `CCCCCCCCC(=O)N1CCc2cc(S(=O)(=O)Nc3ccccc3)ccc21`: the EC50 in test [1] worked out at 7 nM. Moreover, the values for the half-inhibitory concentration (IC50) in test [2] and in test [3] were 1800 nM and 1000 nM, respectively.
The molecule `CCCCCCCCc1nc(N2CCc3cc(S(=O)(=O)Nc4ccccc4)ccc32)no1` came in with an EC50 in test [1] of 31 nM. The values for the half-maximal inhibitory concentration (IC50) in test [2] and in test [3] were 580 nM and 100 nM, respectively.
As for `CCCCCCCCN(C)C(=O)N1CCc2cc(S(=O)(=O)Nc3ccccc3)ccc21`, the EC50 in test [1] was determined as 18 nM. For the same molecule, the IC50 was 970 nM in test [2] and 1000 nM in test [3].
On the same counts, the results for `CCCCCCC(=O)N1CCc2cc(S(=O)(=O)Nc3ccccc3)ccc21` are 88 nM, 10000 nM and 2000 nM.
As for `CN(CCc1ccccc1)C(=O)N1CCc2cc(S(=O)(=O)Nc3ccccc3)ccc21`, a half-maximal effect in test [1] (EC50) was put at 55 nM. For the same molecule, the IC50 in test [2] worked out at 10000 nM; in test [3], 2500 nM.
As for `O=S(=O)(Nc1ccccc1)c1ccc2c(c1)CCN2c1cccc(CCCC2CCCC2)c1`, in test [1], it took 5 nM to reach a half-maximal effect (EC50). Moreover, the IC50 in test [2] was determined as 4000 nM; in test [3], 7500 nM.
`CCCCCCCCNC(=O)N1CCc2cc(S(=O)(=O)Nc3ccccc3)ccc21`: the EC50 in test [1] was determined as 0.73 nM. For the same molecule, the figures for the IC50 in test [2] and in test [3] were 1000 nM and 630 nM, respectively.
The molecule `CCCCCCCCc1ccnc(N2CCc3cc(S(=O)(=O)Nc4ccccc4)ccc32)n1` displayed an EC50 in test [1] of 2.4 nM. Besides, the IC50 came to 1000 nM in test [2] and 530 nM in test [3].
In test [4], `CN(C)C(=O)N1CCc2cc(S(=O)(=O)Nc3ccccc3)ccc21` had an Activation of 8%. For the same molecule, the IC50 is 9000 nM in test [2] and 7000 nM in test [3].
With `CCCCCCCCc1cccc(N2CCc3cc(S(=O)(=O)Nc4ccccc4)ccc32)n1`, in test [1], the EC50 stood at 1 nM. Also, the IC50 was found to be 220 nM in test [2] and 63 nM in test [3].
`CCCCCCc1csc(N2CCc3cc(S(=O)(=O)Nc4ccccc4)ccc32)n1` gave an EC50 in test [1] of 0.9 nM. The IC50 is 1400 nM in test [2] and 510 nM in test [3].
Take `CCCCCCCCc1csc(Nc2ccc(S(=O)(=O)Nc3ccccc3)cc2)n1`: in test [1], the 50% effective concentration (EC50) stood at 0.8 nM. Besides, the values for the IC50 in test [2] and in test [3] were 650 nM and 340 nM, respectively.
Turning to `CCCCCCCCc1csc(N2CCc3cc(S(=O)(=O)Nc4ccccc4)ccc32)n1`, in test [1], the response was half-maximal at 0.93 nM (EC50). Moreover, the IC50 came to 2600 nM in test [2] and 1300 nM in test [3].
In test [4], `O=S(=O)(Nc1ccccc1)c1ccc2c(c1)CCN2c1noc(CCCC2CCCC2)n1` yielded an Activation of 20%. The values for the IC50 in test [2] and in test [3] were 330 nM and 42 nM, respectively.
